From PubChem BioAssay (NCI) come the findings set out here.

Several values for one entry are separate records, joined by “and”; a condition that tells them apart may be missing. Equal values may be shown once.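 Cells were grown in 96-well plates and exposed to each compound for 48 hours at five concentrations; endpoints were interpolated linearly between bracketing concentrations, or set to the highest concentration if not reached. GI50 marks 50% less growth. TGI: concentration producing complete growth inhibition.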

Among the test systems are SK-MEL-2 melanoma; HT29 colon; MALME-3M melanoma; NCI-H23 lung; OVCAR-5 ovarian; SN12C renal; OVCAR-4 ovarian; HOP-62 NSCLC; MCF7 breast; HS 578T breast.
What all share (assay): NCI tumour cell line growth inhibition, 48 h

For the molecule `c1cc(C2CCCCC2)ccc1-c1cnc2nonc2n1`, the GI50 in the assay with SK-MEL-2 melanoma is 1.31 µM; with HT29 colon, 0.603 µM; with MALME-3M melanoma, 1.18 µM; in the assay on NCI-H23 lung it was 1.37 µM; in the assay on OVCAR-5 ovarian it was 1.7 µM; in the assay with SN12C renal it was 1.1 µM. For the same molecule, the GI50 in the assay on OVCAR-4 ovarian is 0.856 µM; in the assay on HOP-62 NSCLC it was 1.21 µM; in the assay on MCF7 breast, 0.393 µM; with HS 578T breast, 1.02 µM. Besides, the TGI was found to be 3.62 µM in the assay with SK-MEL-2 melanoma; 3.27 µM with HT29 colon; 2.66 µM with MALME-3M melanoma; 4.02 µM in the assay on NCI-H23 lung; 4.04 µM in the assay on OVCAR-5 ovarian; 3.21 µM in the assay on SN12C renal. Also, the TGI in the assay on OVCAR-4 ovarian is 2.28 µM; in the assay with HOP-62 NSCLC, 5.98 µM; with MCF7 breast it was 3.21 µM; in the assay with HS 578T breast, > 58.3 µM.

Regarding `Cc1nc2sc(C(=O)Nc3ccccc3)c(N)c2cc1C(O)c1ccccc1` (stereo unspecified), the GI50 was 0.659 µM with SK-MEL-2 melanoma; 0.326 µM in the assay on HT29 colon; 0.6 µM in the assay on MALME-3M melanoma; 0.664 µM in the assay on NCI-H23 lung; 0.565 µM with OVCAR-5 ovarian; 0.46 µM in the assay on SN12C renal. Also, the GI50 is 0.833 µM with OVCAR-4 ovarian, 0.448 µM in the assay with HOP-62 NSCLC, 0.091 µM with MCF7 breast and 0.325 µM with HS 578T breast. In addition, the TGI in the assay with SK-MEL-2 melanoma was > 100 µM; with HT29 colon it was 17.6 µM; with MALME-3M melanoma, 34.3 µM; with NCI-H23 lung, > 100 µM; in the assay on OVCAR-5 ovarian, > 88.1 µM; in the assay on SN12C renal, > 100 µM. Besides, the TGI in the assay on OVCAR-4 ovarian is > 100 µM; in the assay on HOP-62 NSCLC, > 53.8 µM; with MCF7 breast, 19.1 µM; in the assay with HS 578T breast it was > 35.1 µM.

Consider `COc1ccc(/C=C\c2cc(OC)c(OC)c(OC)c2)cc1OC(=O)CC(N)C(=O)O` (stereo unspecified), for which the GI50 with SK-MEL-2 melanoma is 0.00151 µM and 0.00249 µM; in the assay on HT29 colon, 4.65 µM; in the assay on MALME-3M melanoma, 0.00102 µM; in the assay with NCI-H23 lung, 0.000635 µM; with OVCAR-5 ovarian, 55.8 µM; with SN12C renal, 0.00412 µM. Besides, the GI50 is 9.51 µM with OVCAR-4 ovarian, 0.0244 µM in the assay on MCF7 breast and 0.00262 µM in the assay on HS 578T breast. The TGI in the assay with SK-MEL-2 melanoma was 0.00812 µM; in the assay on HT29 colon, 39.6 µM; with NCI-H23 lung it was 0.0465 µM; in the assay with OVCAR-5 ovarian it was > 100 µM; with SN12C renal, > 100 µM; in the assay with OVCAR-4 ovarian, > 100 µM. In addition, the TGI was > 100 µM with HOP-62 NSCLC and 0.00314 µM in the assay with HS 578T breast.

On to `O=C1C(Cl)=C(Nc2cc(Cl)ccc2O)C(=O)N1Cc1ccccc1`, for which the GI50 in the assay on SK-MEL-2 melanoma was 20.3 µM; in the assay on HT29 colon it was 16.4 µM; with MALME-3M melanoma it was 20.7 µM; in the assay on NCI-H23 lung, 16.6 µM; in the assay with OVCAR-5 ovarian, 18.8 µM; in the assay with SN12C renal, 19.5 µM. For the same molecule, the GI50 in the assay on OVCAR-4 ovarian was 17.2 µM; in the assay with HOP-62 NSCLC it was 34 µM; in the assay with MCF7 breast, 21 µM; in the assay on HS 578T breast, 21.7 µM. The TGI with SK-MEL-2 melanoma came to 53.3 µM; in the assay on HT29 colon it was 59.9 µM; with MALME-3M melanoma, 37.5 µM; with NCI-H23 lung it was 31.5 µM; with OVCAR-5 ovarian, 35.4 µM; in the assay with SN12C renal, 34.4 µM. Besides, the TGI with OVCAR-4 ovarian is 38.1 µM; in the assay on HOP-62 NSCLC it was > 61 µM; in the assay with MCF7 breast, 52.9 µM; with HS 578T breast, 49.6 µM.

As for `CCCCSc1nc(N)c2cn[nH]c2n1`, the GI50 with SK-MEL-2 melanoma is 22.2 µM; with HT29 colon, 25.5 µM; with MALME-3M melanoma, 24.6 µM; in the assay on NCI-H23 lung, 13.8 µM; in the assay on OVCAR-5 ovarian it was 16.6 µM; in the assay with SN12C renal, 12.8 µM. For the same molecule, the GI50 was 23.6 µM in the assay on OVCAR-4 ovarian, 22.5 µM in the assay with HOP-62 NSCLC, 23.4 µM with MCF7 breast and 22 µM with HS 578T breast. In addition, the TGI was > 64.6 µM with SK-MEL-2 melanoma; 62.6 µM in the assay on HT29 colon; 42.9 µM with MALME-3M melanoma; 30.9 µM in the assay on NCI-H23 lung; 54.3 µM in the assay with OVCAR-5 ovarian; 28.5 µM in the assay with SN12C renal. Moreover, the TGI in the assay with OVCAR-4 ovarian is 70.4 µM; with HOP-62 NSCLC, 48.8 µM; in the assay on MCF7 breast it was > 62.5 µM; in the assay with HS 578T breast it was 63.2 µM.

For `COc1cc2c(NC3CCN(C(C)C)CC3)nc(C3CCCCC3)nc2cc1OCCCN1CCCC1`, the GI50 with SK-MEL-2 melanoma is 2.18 µM; in the assay with HT29 colon, 1.49 µM; with MALME-3M melanoma it was 1.8 µM; in the assay on NCI-H23 lung, 10.8 µM; with OVCAR-5 ovarian it was 8.87 µM; in the assay on SN12C renal it was 12 µM. The GI50 in the assay on OVCAR-4 ovarian is 5.36 µM; with HOP-62 NSCLC it was 3.22 µM; in the assay with MCF7 breast, 2.64 µM; in the assay on HS 578T breast, 4.11 µM. The TGI in the assay on SK-MEL-2 melanoma was determined as 4.59 µM; with HT29 colon, 3.86 µM; in the assay on MALME-3M melanoma, 3.42 µM; in the assay on NCI-H23 lung it was 25.5 µM; in the assay with OVCAR-5 ovarian, 22.2 µM; with SN12C renal it was 25.1 µM. Also, the TGI with OVCAR-4 ovarian worked out at 15.9 µM; in the assay on HOP-62 NSCLC, 10.1 µM; in the assay with MCF7 breast it was 14.4 µM; in the assay with HS 578T breast it was 22.8 µM.

Turning to `C[C@H]1COCCN1c1nc(-c2cnc(N)cc2C(F)F)nc(N2CCOCC2)n1`, the GI50 in the assay on SK-MEL-2 melanoma was 0.232 µM; with HT29 colon it was 0.176 µM; in the assay with MALME-3M melanoma, 0.104 µM; with NCI-H23 lung, 0.274 µM; in the assay on OVCAR-5 ovarian, 0.188 µM; in the assay with SN12C renal it was 0.159 µM. The GI50 in the assay with OVCAR-4 ovarian was 0.174 µM; with HOP-62 NSCLC it was 0.414 µM; in the assay on MCF7 breast, 0.0487 µM; in the assay on HS 578T breast, 0.1 µM. The TGI in the assay with SK-MEL-2 melanoma is 1.12 µM; in the assay with HT29 colon it was > 100 µM; in the assay with MALME-3M melanoma it was 0.721 µM; in the assay on NCI-H23 lung it was > 100 µM; in the assay on OVCAR-5 ovarian it was > 100 µM; in the assay with SN12C renal, > 100 µM. Besides, the TGI in the assay with HOP-62 NSCLC was > 100 µM; in the assay on MCF7 breast, > 100 µM; in the assay with HS 578T breast, 0.551 µM.
